Entries after “also recorded” stand apart in the source; their conditions may differ.
What was measured:
[1] = system: ectoderm cells; test: Differentiation of ectoderm cells into photoreceptor neuron cells with AM580 (morphology, Q-PCR, immunofluorescence); type: cell-based, human
Method: The ectoderm cells obtained by the NouvNeu system in Example 2 were subjected to directed differentiation in NouvNeu medium. For differentiation, a 6-well culture plate was coated by 50 ug/ml poly-lysine (SIGMA, P6407), incubated in an incubator at 37° C. for more than 3 hours until cells were seeded.
The photoreceptor neuron cell induction medium of the present invention was obtained by supplementing the NouvNeu-basal base medium with 55 nM-25 uM LY2157299 (with an optimal concentration of 7.5 uM) (preferably 100 nM, 300 nM, 500 nM, 700 nM, 900 nM, 1 uM, 2.5 uM, 5 uM, 7.5 uM, 10 uM, 12.5 uM, 15 uM, 17.5 uM, 20 uM or 22 uM) and 0.05-0.95 uM AM580 (Selleck) (with an optimal concentration of 0.5 uM) (preferably 0.08 uM, 0.09 uM, 0.1 uM, 0.2 uM, 0.3 uM, 0.5 uM, 0.6 uM, 0.7 uM, 0.8 uM, 0.9 uM). The cells were cultured until photoreceptor neuron cell were formed. A control experiment was performed by adding 0.5 uM retinoic acid to the NouvNeu medium, hereinafter referred to as RA.
The screening test of AM580 concentration was carried out with reference to Example 2.3, and the expression difference of photoreceptor neuron cells obtained by using different concentrations of AM580 in the AM580 induction method and the LSB induction method was compared. See Table 2 and Table 4 for the details of primers used. […] In combination with the effect of AM580 on the expression of photoreceptor neuron-specific genes shown in FIG. 4, it could be concluded that the concentrations of AM580 used in the present invention are within the range of optimal concentration.
The medium was replaced with fresh medium every 3 days until day 21. The conditions for culture were at 37° C., 5% CO2 (Panasonic, MCO-18AC). After the induction was completed, the samples in experimental group and control group were respectively identified by immunofluorescence staining as follows: cells were fixed with 4% paraformaldehyde at room temperature for 40 minutes, washed twice with DPBS buffer; then permeabilized with 0.1% Triton X-100 for 5 minutes, washed twice with DPBS buffer; then incubated overnight at 4° C. with DPBS buffer containing 10% horse serum and 0.1% Triton X-100; added with a primary antibody diluted in DPBS buffer containing 2% horse serum and 0.1% Triton X-100, incubated at 37° C. for two hours, and washed three times with DPBS buffer, added with a secondary antibody diluted in DPBS buffer containing 2% horse serum and 0.1% Triton X-100, and then photographed.
Transcription changes of different marker genes during induction from ectoderm cells to photoreceptor neuron cells were detected by Q-PCR. The photoreceptor cells obtained by using the present invention and different concentrations of AM580, and the photoreceptor cells obtained by the RA control induction method were respectively extracted with RNeasy Mini or Micro Kit (QIAGEN) for total RNA, and cDNA was synthesized by […] RNA via SuperScript III First-Strand Synthesis System (Invitrogen). SYBR Premix Ex Taq (TaKaRa) and Thermal Cycler Dice Real Time System (TaKaRa) were used for labeling and reaction of Quantitative PCR, and beta-Actin was used as internal control. All data were analyzed by delta-Ct method. Three replicates were used for each group of experiments, and ANOVA was performed.

[2] = system: human pluripotent stem cells; test: Chemical induction of ectoderm cells from pluripotent stem cells with different concentrations of LY2157299 (morphology, Q-PCR); type: cell-based
Method: The ectoderm cell induction medium of the present invention was obtained by supplementing the NouvNeu-basal base medium with 55 nM-25 uM LY2157299 (Selleck) (with an optimal concentration of 7.5 uM) (preferably 100 nM, 300 nM, 500 nM, 700 nM, 900 nM, 1 uM, 2.5 uM, 5 uM, 7.5 uM, 10 uM, 12.5 uM, 15 uM, 17.5 uM, 20 uM or 22 uM). An induction method using said ectoderm cell induction medium was hereinafter referred to as a LY induction method.
Ectoderm cells were derived from human pluripotent stem cells, including embryogenic pluripotent stem cells, such as H9 cell line and human induced pluripotent stem cells. Human induced pluripotent stem cells were obtained by reprogramming from CD34+ cells according to “Reprogrammed culture medium and culture method of reprogrammed induced multipotential stem cell” (ZL 201910050800.7). In the present invention, “induced pluripotent stem cells” and “pluripotent stem cells” were used interchangeably.
During the induction of ectoderm cells, a 6-well culture plate was coated by using 50 ug/ml polylysine (SIGMA, P6407), and incubated in an incubator at 37° C. for more than 3 hours; then further coated by 5 ug/ml laminin (Laminin, I2020, SIGMA ALDRICH), and incubated in an incubator at 37° C. for more than 3 hours after plating. After the pluripotent stem cells reached 70% coverage, they were digested with EDTA at 37° C. for 5 min, and the cell digestion was terminated with DMEM. After washing and centrifugation, the cells were re-plated in the T25 culture plate at 2×10^5 cells per flask. The neural stem cell induction medium of the present invention was used for induction, and replaced with fresh induction medium every day until lamellar ectoderm cells were formed.
The effect of different concentrations of LY2157299 on the formation of ectoderm cells was detected by Q-PCR. The ectoderm cells obtained from the induced pluripotent stem cells in Example 2 by using different concentrations of LY2157299 in the LY induction method and LSB induction method were respectively extracted with RNeasy Mini or Micro Kit (QIAGEN) for total RNA, and cDNA was synthesized by […] RNA via SuperScript III First-Strand Synthesis System (Invitrogen). SYBR Premix Ex Taq (TaKaRa) and Thermal Cycler Dice Real Time System (TaKaRa) were used for labeling and reaction by Quantitative PCR, and beta-Actin was used as internal control. All data were analyzed by delta-Ct method. Triplicates were used for each group of experiments, and ANOVA was performed.

[3] = system: ectoderm cells; test: Differentiation of the ectoderm cells into neural stem cells (neural rosettes, immunofluorescence, Q-PCR); type: cell-based, human
Method: Ectoderm cells could be further cultured to form neural stem cells. In order to identify this ability of ectoderm cells, the ectoderm cells obtained in Example 2.1 were further cultured in vitro by using a NouvNeu-basal base medium supplemented with 7.5 uM LY2157299 and 0.5-20 uM JW55 (with an optimal concentration of 5 uM) until a neural rosette-like structure was formed. The LSB induction method was used as a control. […]
Transcription changes of different marker genes during induction from ectoderm cells to neural stem cells were detected by Q-PCR. […] SYBR Premix Ex Taq (TaKaRa) and Thermal Cycler Dice Real Time System (TaKaRa) were used for labeling and reaction by Quantitative PCR, and beta-Actin was used as internal control. All data were analyzed by delta-Ct method. […]

[4] = system: photoreceptor cells; test: Cyquant cell viability assay during induction of photoreceptor cells; type: cell-based, human; settings: Cyquant test, FIGS. 6e-6g
Source text: The Cyquant test was also used to detect the effect of progesterone, putrescine and Optiferrin on cell viability, so as to study the effects of different concentrations of progesterone, putrescine and Optiferrin on the physiological state of cells during the induction of photoreceptor cells.

[5] = Osmotic pressure of the culture system by freezing point osmometer; type: physicochemical; design: osmotic pressure of the culture system: dose or concentration left out as unconfirmed
Method: A screening culture system was prepared by using different concentration gradients of sodium chloride while maintaining the optimal concentration of other components. The effect of different concentrations of sodium chloride on the osmotic pressure of culture system was detected by using an automatic freezing point osmometer (FM-8P, Shanghai Medical University Instrument Co., Ltd.), and specific operations were performed according to the product manual (FM-8P, Shanghai Medical University Instrument Co., Ltd.).

[6] = system: human pluripotent stem cells; test: Cyquant cell viability assay during ectoderm induction, long-term culture; type: cell-based; settings: for number of cells induced versus concentration: Cyquant test, FIGS. 6c-6d
Method: A screening culture system was prepared by using different concentration gradients of insulin or vitamin C while maintaining the optimal concentration of other components. Ectoderm induction was performed according to the method in Example 2.1. The cell viability was quantitatively detected by Cyquant assay to study the effects of insulin or vitamin C on the physiological state of cells during long-term cell culture. A 96-well opaque cell culture plate was coated, and then the cells are inoculated at 5×10^4 cells per well, wherein parallel triplicates were set up (the average of the three groups was calculated as the data). The steps in Example 2.1 were repeated with the culture conditions of 37° C., 5% CO2. Samples were taken at day 1, day 5, day 10 and day 20, respectively, and the cell viability detection was carried out by CyQuant Kit (Invitrogen, X12223) according to the instruction manual, and data were read by SpectraMax i3 Multi-Mode Microplate Reader (VWR, ID3-STD). […] Therefore, in combination with cost factors, the insulin or vitamin C in the basal medium of the present invention was the optimal concentration.

[7] = system: photoreceptor neuron cells; test: Screening test of vitamin B12 concentration (Q-PCR of photoreceptor neuron cells); type: cell-based, human
Method: The screening test of vitamin B12 concentration was carried out with reference to Example 2.3, and the expression difference of photoreceptor neuron cells obtained by using different concentrations of vitamin B12 was compared. See Table 2 and Table 4 for the details of primers used. […] Therefore, the concentration of vitamin B12 used in the present invention was the optimal concentration.

Compound: CC1(C)CCC(C)(C)c2cc(C(=O)Nc3ccc(C(=O)O)cc3)ccc21 [AM580]
- marker PAX6 versus concentration ([1]; Q-PCR, FIG. 3f): positively correlated
- apoptotic markers versus concentration ([1]; Q-PCR, FIG. 3g): positively correlated
- expression of photoreceptor cell-specific marker genes ([1]; Q-PCR, compared with RA control, FIG. 4): could induce the expression of multiple photoreceptor cell-specific marker genes, which was not significantly lower than that of the RA control
- morphology of differentiated cells ([1]; appropriate concentration, FIG. 3d): uniformly differentiated photoreceptor cells with short axons
- apoptosis ([1]; concentration too high): lead to apoptosis
- morphology of differentiated cells ([1]; excessively high concentration, FIG. 3e): results in stress in differentiated cells
- protein expression of photoreceptor markers ([1]; fluorescent immunoassay, FIG. 5): same protein expression patterns with that in the RA control group
- optimal concentration of AM580 ([1]; induction of photoreceptor cells, screening of different concentrations (FIG. 3)): 0.5 µM
- morphology of differentiated cells ([1]; low concentration, FIG. 3c): differentiation into mixed cells including cortical neurons

Compound: Cc1cccc(-c2nn3c(c2-c2ccnc4ccc(C(N)=O)cc24)CCC3)n1 [LY2157299, 4-(2-(6-methylpyridin-2-yl)-5,6-dihydro-4H-pyrrolo[1,2-b]pyrazol-3-yl) quinoline-6-carboxamide]
- ectoderm markers versus concentration ([2]; Q-PCR, FIG. 2f): positively correlated
- apoptotic markers versus concentration ([2]; Q-PCR, FIG. 2g): positively correlated
- formation of ectoderm cells (morphology) ([2]; appropriate concentration, FIG. 2d): uniformly differentiated ectoderm cells
- formation of ectoderm cells (morphology) ([2]; excessively high concentration, FIG. 2e): promote the differentiation of ectoderm cells into neural cells
- cell apoptosis ([2]; high concentration): induced cell apoptosis
- optimal concentration of LY2157299 ([2]; induction of ectoderm cells, screening of different concentrations (FIG. 2)): 7.5 µM
- formation of ectoderm cells (morphology) ([2]; low concentration, FIG. 2c): differentiation into mixed cell including ectodermal cells; also recorded: the ectoderm could not be completely formed
- expression of neural stem cell markers compared with the control method ([3]; Q-PCR, FIGS. 1e-1f): slightly increase the expression of neural stem cell markers
- neural stem cell markers after formation of neural rosettes ([3]; immunofluorescence staining, FIGS. 1a-1d): can express neural stem cell markers Pax6 and Nestin

Compound: CC(=O)[C@H]1CC[C@H]2[C@@H]3CCC4=CC(=O)CC[C@]4(C)[C@H]3CC[C@]12C [progesterone]
- cell proliferation rate versus concentration [4]: positively correlated

Compound: NCCCCN [putrescine]
- cell proliferation rate versus concentration [4]: positively correlated

Compound: [Cl-].[Na+] [sodium chloride]
- osmotic pressure of the culture system versus concentration ([5]; concentration gradients, FIG. 6a): increased linearly
- osmotic pressure of the culture system ([5]; sodium chloride concentration): > 320 mOsm/kg

Compound: O=C1O[C@H]([C@@H](O)CO)C(O)=C1O [vitamin C, L-ascorbic acid]
- number of cells induced versus concentration [6]: positively correlated
- number of cells compared with the optimal concentration ([6]; high concentration): not significantly different
- state of cells in the late stage of induction ([6]; high concentration): caused the cells to shed in pieces

Compound: Optiferrin: component of the NouvNeu-basal base medium (SIGMA)
- cell proliferation rate versus concentration [4]: positively correlated

Compound: insulin: component of the NouvNeu-basal base medium
- number of cells induced versus concentration [6]: positively correlated
- number of cells compared with the optimal concentration ([6]; high concentration): not significantly different

Compound: vitamin B12
- photoreceptor non-specific marker PAX6 versus concentration ([7]; Q-PCR, FIG. 6b): positively correlated
- relative expression of PAX6 ([7]; concentration too high): decrease in the relative expression of PAX6
